In PubChem BioAssay AID2060900 (Molecular Pharmacology Branch, DTP, NCI, 2025):

Tested on: 521955-158-R2-J5-PDC complex spheroids, viability
Assay: Anticancer human tumor 521955-158-R2-J5-PDC patient-derived pancreatic carcinoma cell line growth inhibition [RAS]
Conditions: for viability, T/C: stronger effect = lower value
Summary of the method: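 Multi-cell-type spheroids: tumor cells plus HUVEC endothelial cells and mesenchymal stem cells. RAS-pathway inhibitors were combined with targeted agents, each dosed in half-log steps down from clinical Cmax, or from 10 microM when Cmax was unknown.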

[1] = curve of first compound, second compound 0.0316 µM
[2] = curve of first compound, second compound 0.1 µM
[3] = curve of first compound, second compound 0.316 µM
[4] = curve of first compound, second compound 1 µM
[5] = curve of first compound, second compound 3.16 µM
[6] = curve of first compound, second compound 10 µM
[7] = second compound 0.0316 µM, first compound 0.0316 µM
[8] = second compound 0.0316 µM, first compound 0.1 µM
[9] = second compound 0.0316 µM, first compound 0.316 µM
[10] = second compound 0.0316 µM, first compound 1 µM
[11] = second compound 0.1 µM, first compound 0.0316 µM
[12] = second compound 0.1 µM, first compound 0.1 µM
[13] = second compound 0.1 µM, first compound 0.316 µM
[14] = second compound 0.1 µM, first compound 1 µM
[15] = second compound 0.316 µM, first compound 0.0316 µM
[16] = second compound 0.316 µM, first compound 0.1 µM
[17] = second compound 0.316 µM, first compound 0.316 µM
[18] = second compound 0.316 µM, first compound 1 µM
[19] = second compound 1 µM, first compound 0.0316 µM
[20] = second compound 1 µM, first compound 0.1 µM
[21] = second compound 1 µM, first compound 0.316 µM
[22] = second compound 1 µM, first compound 1 µM
[23] = second compound 3.16 µM, first compound 0.0316 µM
[24] = second compound 3.16 µM, first compound 0.1 µM
[25] = second compound 3.16 µM, first compound 0.316 µM
[26] = second compound 3.16 µM, first compound 1 µM
[27] = second compound 10 µM, first compound 0.0316 µM
[28] = second compound 10 µM, first compound 0.1 µM
[29] = second compound 10 µM, first compound 0.316 µM
[30] = second compound 10 µM, first compound 1 µM
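Further: compound exposure lasted seven days before the viability read.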
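Wherever viability, T/C is given: spheroids also contain HUVEC endothelial cells and mesenchymal stem cells as stroma.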

With NC1c2ccccc2OC12CCN(c1cnc3c(N4CCCc5ncccc54)n[nH]c3n1)CC2 (stereo not drawn) + C#Cc1c(F)ccc2cc(O)cc(-c3ncc4c(N5CC6CCC(C5)N6)nc(OCC56CCCN5CC(F)C6)nc4c3F)c12 the IC50 [1] was < 31.6 nM, the IC50 [2] was 35.2 nM and the IC50 [3] was < 31.6 nM. The IC50 [4] was < 31.6 nM, the IC50 [5] was < 31.6 nM and the IC50 [6] was < 31.6 nM. For the same molecule, the viability, T/C [7] was 49.8%, the viability, T/C [8] was 38.6% and the viability, T/C [9] was 32.1%. For the same molecule, the viability, T/C [10] was 19.2%, the viability, T/C (second compound 0.0316 µM, first compound 3.16 µM) was 16.3% and the viability, T/C (second compound 0.0316 µM, first compound 10 µM) was 9.96%. It also gave a viability, T/C [11] of 50.6%, a viability, T/C [12] of 42.4% and a viability, T/C [13] of 26.2%. For the same molecule, the viability, T/C [14] was 16.9%, the viability, T/C (second compound 0.1 µM, first compound 3.16 µM) was 14.2% and the viability, T/C (second compound 0.1 µM, first compound 10 µM) was 10.4%. The viability, T/C [15] was 44%, the viability, T/C [16] was 35.5% and the viability, T/C [17] was 21.9%. The viability, T/C [18] was 12.9%, the viability, T/C (second compound 0.316 µM, first compound 3.16 µM) was 12.2% and the viability, T/C (second compound 0.316 µM, first compound 10 µM) was 7.43%. For the same molecule, the viability, T/C [19] was 35%, the viability, T/C [20] was 31.7% and the viability, T/C [21] was 23.9%. The viability, T/C [22] was 13.1%, the viability, T/C (second compound 1 µM, first compound 3.16 µM) was 12.5% and the viability, T/C (second compound 1 µM, first compound 10 µM) was 8.41%. It also gave a viability, T/C [23] of 32.1%, a viability, T/C [24] of 25.3% and a viability, T/C [25] of 17.8%. The viability, T/C [26] was 11.1%, the viability, T/C (second compound 3.16 µM, first compound 3.16 µM) was 5.56% and the viability, T/C (second compound 3.16 µM, first compound 10 µM) was 3.9%. It also gave a viability, T/C [27] of 21.3%, a viability, T/C [28] of 16% and a viability, T/C [29] of 5.5%. The viability, T/C [30] was 4.22%, the viability, T/C (second compound 10 µM, first compound 3.16 µM) was 3.21% and the viability, T/C (second compound 10 µM, first compound 10 µM) was 1.47%.
In the case of CC(C)n1nc(-c2ccc3oc(N)nc3c2)c2c(N)ncnc21 + CCn1c(-c2cc(N3CCN(C)CC3)cnc2C(C)OC)c2c3cc(ccc31)-c1csc(n1)CC(NC(=O)C1CC1C)C(=O)N1CCCC(N1)C(=O)OCC(C)(C)C2, the IC50 (curve of first compound, second compound 0.000949 µM) is reported as < 0.316 nM, the IC50 (curve of first compound, second compound 0.003 µM) is reported as < 0.316 nM and the IC50 (curve of first compound, second compound 0.00949 µM) is reported as < 0.316 nM. The IC50 (curve of first compound, second compound 0.03 µM) was < 0.316 nM, the IC50 (curve of first compound, second compound 0.0949 µM) was < 0.316 nM and the IC50 (curve of first compound, second compound 0.3 µM) was < 0.316 nM. The viability, T/C (second compound 0.000949 µM, first compound 0.000316 µM) was 38.5%, the viability, T/C (second compound 0.000949 µM, first compound 0.001 µM) was 40.2% and the viability, T/C (second compound 0.000949 µM, first compound 0.00316 µM) was 37.6%. For the same molecule, the viability, T/C (second compound 0.000949 µM, first compound 0.01 µM) was 39.8%, the viability, T/C (second compound 0.000949 µM, first compound 0.0316 µM) was 22.7% and the viability, T/C (second compound 0.000949 µM, first compound 0.1 µM) was 21.2%. The viability, T/C (second compound 0.003 µM, first compound 0.000316 µM) was 34.6%, the viability, T/C (second compound 0.003 µM, first compound 0.001 µM) was 38.8% and the viability, T/C (second compound 0.003 µM, first compound 0.00316 µM) was 28.7%. For the same molecule, the viability, T/C (second compound 0.003 µM, first compound 0.01 µM) was 22.6%, the viability, T/C (second compound 0.003 µM, first compound 0.0316 µM) was 11.2% and the viability, T/C (second compound 0.003 µM, first compound 0.1 µM) was 7.9%. For the same molecule, the viability, T/C (second compound 0.00949 µM, first compound 0.000316 µM) was 31.3%, the viability, T/C (second compound 0.00949 µM, first compound 0.001 µM) was 30.2% and the viability, T/C (second compound 0.00949 µM, first compound 0.00316 µM) was 34.9%. The viability, T/C (second compound 0.00949 µM, first compound 0.01 µM) was 21.4%, the viability, T/C (second compound 0.00949 µM, first compound 0.0316 µM) was 14.2% and the viability, T/C (second compound 0.00949 µM, first compound 0.1 µM) was 6.83%. It also gave a viability, T/C (second compound 0.03 µM, first compound 0.000316 µM) of 25.3%, a viability, T/C (second compound 0.03 µM, first compound 0.001 µM) of 22% and a viability, T/C (second compound 0.03 µM, first compound 0.00316 µM) of 20.4%. For the same molecule, the viability, T/C (second compound 0.03 µM, first compound 0.01 µM) was 17.9%, the viability, T/C (second compound 0.03 µM, first compound 0.0316 µM) was 11.7% and the viability, T/C (second compound 0.03 µM, first compound 0.1 µM) was 6.04%. For the same molecule, the viability, T/C (second compound 0.0949 µM, first compound 0.000316 µM) was 11.8%, the viability, T/C (second compound 0.0949 µM, first compound 0.001 µM) was 11% and the viability, T/C (second compound 0.0949 µM, first compound 0.00316 µM) was 15.8%. The viability, T/C (second compound 0.0949 µM, first compound 0.01 µM) was 12.2%, the viability, T/C (second compound 0.0949 µM, first compound 0.0316 µM) was 10% and the viability, T/C (second compound 0.0949 µM, first compound 0.1 µM) was 3.64%. It also gave a viability, T/C (second compound 0.3 µM, first compound 0.000316 µM) of 9.8%, a viability, T/C (second compound 0.3 µM, first compound 0.001 µM) of 10.4% and a viability, T/C (second compound 0.3 µM, first compound 0.00316 µM) of 7.93%. The viability, T/C (second compound 0.3 µM, first compound 0.01 µM) was 7.87%, the viability, T/C (second compound 0.3 µM, first compound 0.0316 µM) was 6.76% and the viability, T/C (second compound 0.3 µM, first compound 0.1 µM) was 3.75%.
For CCN1CCN(Cc2ccc(Nc3ncc(F)c(-c4cc(F)c5nc(C)n(C(C)C)c5c4)n3)nc2)CC1 + C#Cc1c(F)ccc2cc(O)cc(-c3ncc4c(N5CC6CCC(C5)N6)nc(OCC56CCCN5CC(F)C6)nc4c3F)c12, the IC50 [1] was > 1000 nM, the IC50 [2] was > 1000 nM and the IC50 [3] was > 1000 nM. The IC50 [4] was 316 nM, the IC50 [5] was < 3.16 nM and the IC50 [6] was < 3.16 nM. For the same molecule, the viability, T/C (second compound 0.0316 µM, first compound 0.00316 µM) was 66.7%, the viability, T/C (second compound 0.0316 µM, first compound 0.01 µM) was 69.4% and the viability, T/C [7] was 57.5%. It also gave a viability, T/C [8] of 73.8%, a viability, T/C [9] of 71.5% and a viability, T/C [10] of 72.8%. The viability, T/C (second compound 0.1 µM, first compound 0.00316 µM) was 46%, the viability, T/C (second compound 0.1 µM, first compound 0.01 µM) was 65.2% and the viability, T/C [11] was 59.2%. The viability, T/C [12] was 61.2%, the viability, T/C [13] was 65.9% and the viability, T/C [14] was 66.6%. The viability, T/C (second compound 0.316 µM, first compound 0.00316 µM) was 61.2%, the viability, T/C (second compound 0.316 µM, first compound 0.01 µM) was 53.5% and the viability, T/C [15] was 46.9%. The viability, T/C [16] was 52.9%, the viability, T/C [17] was 51.1% and the viability, T/C [18] was 67.9%. It also gave a viability, T/C (second compound 1 µM, first compound 0.00316 µM) of 58.5%, a viability, T/C (second compound 1 µM, first compound 0.01 µM) of 56.4% and a viability, T/C [19] of 58%. It also gave a viability, T/C [20] of 45.5%, a viability, T/C [21] of 49.5% and a viability, T/C [22] of 56.1%. For the same molecule, the viability, T/C (second compound 3.16 µM, first compound 0.00316 µM) was 50.2%, the viability, T/C (second compound 3.16 µM, first compound 0.01 µM) was 44.8% and the viability, T/C [23] was 47.8%. For the same molecule, the viability, T/C [24] was 42.6%, the viability, T/C [25] was 59.9% and the viability, T/C [26] was 51%. It also gave a viability, T/C (second compound 10 µM, first compound 0.00316 µM) of 39.7%, a viability, T/C (second compound 10 µM, first compound 0.01 µM) of 37.2% and a viability, T/C [27] of 30.9%. The viability, T/C [28] was 31.4%, the viability, T/C [29] was 36% and the viability, T/C [30] was 24.7%.
For Nc1ccn(C2OC(CO)C(O)C2(F)F)c(=O)n1 (stereo not drawn), the viability, T/C (compound 0.00316 µM) was 101% [middle of 4 runs], the viability, T/C (compound 0.01 µM) was 79% [middle of 4 runs] and the viability, T/C (compound 0.0316 µM) was 79.1% [middle of 4 runs]. For the same molecule, the viability, T/C (compound 0.1 µM) was 72.9% [middle of 4 runs], the viability, T/C (compound 0.316 µM) was 36.5% [middle of 4 runs] and the viability, T/C (compound 1 µM) was 16.2% [middle of 4 runs]. The IC50 (curve of compound) was 183 nM [middle of 4 runs].
